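Tested at 5 concentrations; 48 h exposure; 96-well plates; endpoints linearly interpolated, else capped at highest concentration. At the TGI there is no net growth.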
Assays:
Experiment in all cases: NCI anticancer screen, dose series, 48 h
[1] = test system: HL-60(TB) leukemia
[2] = test system: K-562 leukemia
[3] = test system: OVCAR-8 ovarian
[4] = test system: RPMI-8226 leukemia
[5] = test system: TK-10 renal
[6] = test system: UACC-257 melanoma

Question: `O=[N+]([O-])c1cc(C2ON=C(c3ccccc3)N2C23CC4CC(CC(C4)C2)C3)ccc1Cl` (stereo not drawn) was tested. Which TGI [1] did it give?
Answer: > 100 µM

Question: And the TGI [2]?
Answer: > 100 µM

Question: What about the TGI [3] of the same compound?
Answer: > 100 µM

Question: And the TGI [4]?
Answer: > 100 µM

Question: What about the TGI [5] of the same compound?
Answer: > 100 µM

Question: What about the TGI [6] of the same compound?
Answer: > 100 µM

Question: `CSc1c(C#N)c(=O)n(N)c2n[nH]c(C)c12` was tested. Which TGI [1] did it give?
Answer: > 100 µM

Question: And the TGI [2]?
Answer: > 100 µM

Question: What about the TGI [3] of the same compound?
Answer: > 100 µM

Question: What about the TGI [4] of the same compound?
Answer: > 100 µM

Question: And the TGI [5]?
Answer: > 100 µM

Question: And the TGI [6]?
Answer: > 100 µM

Question: Which results are given for `COc1ccc(-c2c3c(n(C4OC(COC(C)=O)C(OC(C)=O)C(OC(C)=O)C4OC(C)=O)c(=S)c2C#N)CCCC3)cc1` (stereo not drawn)?
Answer: TGI [1]: > 100 µM; TGI [2]: > 100 µM; TGI [3]: > 100 µM; TGI [5]: > 100 µM; TGI [6]: > 100 µM

Question: With `C[C@@H](Br)[C@@H]1CC[C@H]2c3[nH]c4ccccc4c3CCN2C1` as the compound, how does the TGI [1] read?
Answer: 39.5 µM

Question: What about the TGI [2] of the same compound?
Answer: 38.6 µM

Question: What about the TGI [3] of the same compound?
Answer: > 100 µM

Question: What about the TGI [4] of the same compound?
Answer: 37.4 µM

Question: What about the TGI [5] of the same compound?
Answer: > 100 µM

Question: What about the TGI [6] of the same compound?
Answer: > 100 µM

Question: For `CN(C)CCNc1nc2c(c(=O)n(C)c(=O)n2C)n1C`, which TGI [1] is on record?
Answer: > 100 µM

Question: What about the TGI [2] of the same compound?
Answer: > 100 µM

Question: What about the TGI [3] of the same compound?
Answer: > 100 µM

Question: And the TGI [4]?
Answer: > 100 µM

Question: What about the TGI [5] of the same compound?
Answer: > 100 µM

Question: And the TGI [6]?
Answer: > 100 µM

Question: `COC(=O)c1cc(OCc2cc(OCc3ccc(Br)cc3)cc(OCc3ccc(Br)cc3)c2)cc(OCc2cc(OCc3ccc(Br)cc3)cc(OCc3ccc(Br)cc3)c2)c1` was tested. Which TGI [2] did it give?
Answer: > 100 µM

Question: What about the TGI [4] of the same compound?
Answer: > 100 µM

Question: What about the TGI [5] of the same compound?
Answer: > 100 µM

Question: And the TGI [6]?
Answer: > 100 µM

Question: Which TGI [1] does the source give for `O=C1OCC(CN2CCC(n3c(=O)[nH]c4ccccc43)CC2)=C1c1ccccc1` here?
Answer: 40.7 µM

Question: And the TGI [2]?
Answer: > 100 µM

Question: And the TGI [3]?
Answer: 31.6 µM

Question: What about the TGI [4] of the same compound?
Answer: 56.1 µM

Question: What about the TGI [5] of the same compound?
Answer: 63.1 µM

Question: What about the TGI [6] of the same compound?
Answer: 47.3 µM

Question: For `O=Cc1ccc(Oc2c3ccccc3nc3ccccc23)cc1`, which TGI [3] is on record?
Answer: 21 µM

Question: What about the TGI [4] of the same compound?
Answer: 5.95 µM

Question: What about the TGI [5] of the same compound?
Answer: 19.5 µM

Question: And the TGI [6]?
Answer: 4.89 µM

Question: Which results are given for `COc1ccc(/C=C2/C(=O)C(c3ccccc3)N(c3ccccc3)C2=O)cc1OC` (stereo not drawn)?
Answer: TGI [1]: > 10 µM; TGI [3]: > 10 µM; TGI [4]: > 10 µM; TGI [5]: > 10 µM; TGI [6]: > 10 µM

Question: Which results are given for `COc1ccc(OC/C(N=Cc2cccnc2)=N/NC(=O)c2ccncc2)cc1`?
Answer: TGI [1]: > 100 µM; TGI [2]: > 100 µM; TGI [3]: > 100 µM; TGI [4]: > 100 µM; TGI [5]: > 100 µM; TGI [6]: > 100 µM

Question: `Cc1csc(CP(=O)(OC(C)C)OC(C)C)n1` was tested. Which TGI [1] did it give?
Answer: > 100 µM

Question: And the TGI [2]?
Answer: > 100 µM

Question: What about the TGI [3] of the same compound?
Answer: > 100 µM

Question: What about the TGI [4] of the same compound?
Answer: > 100 µM

Question: What about the TGI [5] of the same compound?
Answer: > 100 µM

Question: What about the TGI [6] of the same compound?
Answer: > 100 µM

Question: For `COc1ccc(OC)c2c1-c1nnnn1CCC2(C)C`, which TGI [1] is on record?
Answer: > 100 µM

Question: What about the TGI [2] of the same compound?
Answer: > 100 µM

Question: What about the TGI [3] of the same compound?
Answer: > 100 µM

Question: What about the TGI [4] of the same compound?
Answer: > 100 µM

Question: What about the TGI [5] of the same compound?
Answer: > 100 µM

Question: What about the TGI [6] of the same compound?
Answer: > 100 µM

Question: With `COc1ccccc1N1C(=O)/C(=C\c2ccccc2)SC1c1cc(OC)c(OC)c(OC)c1` (stereo not drawn) as the compound, how does the TGI [2] read?
Answer: > 100 µM

Question: What about the TGI [3] of the same compound?
Answer: > 100 µM

Question: And the TGI [5]?
Answer: > 100 µM

Question: What about the TGI [6] of the same compound?
Answer: > 100 µM

Question: Which results are given for `O=CC1C(=O)Nc2nc3ccccc3n2C1c1ccccc1` (stereo not drawn)?
Answer: TGI [1]: > 100 µM; TGI [2]: 35.3 µM; TGI [3]: 46.1 µM; TGI [4]: 70.4 µM; TGI [5]: 71.6 µM; TGI [6]: 33.3 µM

Question: Which results are given for `[B]C(=O)NC(CC(C)C)C(=O)NC1c2ccsc2C(=O)C1O` (stereo not drawn) (tested in a mixture with another compound)?
Answer: TGI [1]: > 100 µM; TGI [2]: > 100 µM; TGI [3]: > 100 µM; TGI [4]: > 100 µM; TGI [5]: > 100 µM; TGI [6]: > 100 µM

Question: Which TGI [2] does the source give for `COc1cc2oc(=O)cc(C)c2c(OC)c1OC` here?
Answer: > 100 µM

Question: And the TGI [3]?
Answer: > 100 µM

Question: What about the TGI [4] of the same compound?
Answer: > 100 µM

Question: And the TGI [5]?
Answer: > 100 µM

Question: And the TGI [6]?
Answer: > 100 µM

Question: With `c1ccc2c[n+](Cc3ccnc4ccccc34)ccc2c1` as the compound, how does the TGI [2] read?
Answer: > 100 µM

Question: What about the TGI [3] of the same compound?
Answer: > 100 µM

Question: And the TGI [4]?
Answer: > 100 µM

Question: And the TGI [5]?
Answer: > 100 µM

Question: What about the TGI [6] of the same compound?
Answer: > 100 µM

Question: Which TGI [1] does the source give for `Cc1c(OCc2cccc3ccccc23)ccc2c(=O)cc(S)oc12` here?
Answer: 59.7 µM

Question: What about the TGI [2] of the same compound?
Answer: > 100 µM

Question: What about the TGI [3] of the same compound?
Answer: > 100 µM

Question: And the TGI [5]?
Answer: > 100 µM

Question: What about the TGI [6] of the same compound?
Answer: > 100 µM

Question: With `Oc1ccccc1/C=N/N1C(=S)N(c2ccccc2)C(=Nc2ccccc2)C1=Nc1ccccc1` as the compound, how does the TGI [1] read?
Answer: > 86.1 µM

Question: What about the TGI [2] of the same compound?
Answer: > 64.7 µM

Question: What about the TGI [3] of the same compound?
Answer: 18.2 µM

Question: And the TGI [4]?
Answer: > 72.8 µM

Question: And the TGI [5]?
Answer: 20.8 µM

Question: What about the TGI [6] of the same compound?
Answer: > 68 µM

Question: Which results are given for `COc1ccc(C(CC(=O)c2ccc(O)cc2)C(C(=O)c2ccc(O)cc2)C(c2ccc(OC)cc2)C2C(=O)NC(=S)NC2=O)cc1` (stereo not drawn)?
Answer: TGI [1]: 85.6 µM; TGI [2]: > 100 µM; TGI [3]: 60 µM; TGI [4]: 92.4 µM; TGI [5]: 53.7 µM; TGI [6]: 41 µM

Question: With `O=c1oc2ccc([N+](=O)[O-])cc2cc1-c1csc(-c2ccccc2)n1` as the compound, how does the TGI [1] read?
Answer: > 100 µM

Question: What about the TGI [2] of the same compound?
Answer: > 100 µM

Question: And the TGI [3]?
Answer: > 100 µM

Question: And the TGI [4]?
Answer: > 100 µM

Question: What about the TGI [5] of the same compound?
Answer: > 100 µM

Question: And the TGI [6]?
Answer: > 100 µM

Question: For `O=C1CCCC1C(O)(C(F)(F)Cl)C(F)(F)Cl` (stereo not drawn), which TGI [1] is on record?
Answer: > 10 µM

Question: What about the TGI [2] of the same compound?
Answer: > 10 µM

Question: And the TGI [3]?
Answer: > 10 µM

Question: What about the TGI [4] of the same compound?
Answer: > 10 µM

Question: And the TGI [5]?
Answer: > 10 µM

Question: And the TGI [6]?
Answer: > 10 µM

Question: For `CC1(C)CC(=O)C(/C=N/c2nc(-c3cccc([N+](=O)[O-])c3)cs2)=C(O)C1`, which TGI [1] is on record?
Answer: > 100 µM

Question: And the TGI [2]?
Answer: 52.6 µM

Question: And the TGI [3]?
Answer: 96.2 µM

Question: What about the TGI [4] of the same compound?
Answer: 43.9 µM

Question: What about the TGI [5] of the same compound?
Answer: 92.5 µM

Question: What about the TGI [6] of the same compound?
Answer: 49.7 µM

Question: Which results are given for `COc1ccc2oc(=O)c(-c3nc4ccccc4s3)cc2c1`?
Answer: TGI [1]: > 100 µM; TGI [2]: > 100 µM; TGI [3]: 36.9 µM; TGI [4]: > 100 µM; TGI [5]: > 100 µM; TGI [6]: > 100 µM

Question: What does the source list for `CC1(C)C/C=C\CCC(O)C(O)CCC(C)(C)C1=O` (stereo not drawn)?
Answer: TGI [1]: > 100 µM; TGI [2]: > 100 µM; TGI [3]: > 100 µM; TGI [4]: > 100 µM; TGI [5]: > 100 µM; TGI [6]: > 100 µM

Question: Which results are given for `Cc1cn(C2CC(/[N+]([O-])=N\Nc3ccc([N+](=O)[O-])cc3)C(CO)O2)c(=O)[nH]c1=O` (stereo not drawn)?
Answer: TGI [1]: > 100 µM; TGI [2]: > 100 µM; TGI [3]: > 100 µM; TGI [4]: > 100 µM; TGI [5]: > 100 µM; TGI [6]: > 100 µM

Question: Which TGI [1] does the source give for `COC(=O)/C=C/[C@H]1[C@H](C)N1S(=O)(=O)c1ccc(C)cc1` (stereo partly drawn) here?
Answer: > 100 µM

Question: And the TGI [2]?
Answer: > 100 µM

Question: And the TGI [3]?
Answer: > 100 µM

Question: What about the TGI [4] of the same compound?
Answer: > 100 µM

Question: What about the TGI [5] of the same compound?
Answer: > 100 µM

Question: What about the TGI [6] of the same compound?
Answer: > 100 µM

Question: For `COc1ccc(C2=Nn3c(C)nnc3S/C2=C\c2ccc(-c3ccc([N+](=O)[O-])cc3)o2)cc1`, which TGI [1] is on record?
Answer: 73.5 µM

Question: What about the TGI [2] of the same compound?
Answer: 17.7 µM

Question: And the TGI [3]?
Answer: 15.9 µM

Question: What about the TGI [4] of the same compound?
Answer: 15.5 µM

Question: What about the TGI [5] of the same compound?
Answer: 34.3 µM

Question: And the TGI [6]?
Answer: 54.7 µM

Question: What does the source list for `O=c1[nH]nc(-c2ccccc2)c2[nH]c3c(c12)CCCc1ccccc1-3`?
Answer: TGI [1]: 46.2 µM; TGI [2]: 94.8 µM; TGI [3]: 50.7 µM; TGI [4]: 31.2 µM; TGI [5]: 86.4 µM; TGI [6]: 44.5 µM

Source: PubChem BioAssay (NCI)
